Bounds are passed on as bounds.

The source of these data is patent EP1611889A1, “ANTIBACTERIAL AGENT AND ANTICANCER AGENT” (MITSUBISHI CORPORATION, priority 2003, dated 2004).

The data set is described as follows: Solubility in DMSO. Format: physicochemical.

As for “C60-bis(N,N-dimethyl-2-hexylpyyrolidinium iodido) [derivative 4]”, the “dissolved in DMSO at a concentration” value is recorded as not below 5 mM.
